Assay results reported in patent US6727245B2, “Heterobicyclic derivatives” (Fujisawa Pharmaceutical Co., Ltd., priority 1994, dated 2004).

Columns and labels:
[1] = biological target: U937 Phosphodiesterase IV (PDE IV); experiment: Inhibition of U937 Phosphodiesterase IV (PDE IV); assay type: biochemical; conditions: PDE IV enzyme preparation from U937 cell homogenate; [3H]-cAMP substrate; CI-930 (PDE III inhibitor) final 10 μM; 30° C.
Method: (a) Inhibition of U937 Phosphodiesterase IV (PDE IV)
Harvested U937 was freezed in −80° C. and throwed to destroy the cell body. The pellet of destroyed cell was washed by Phosphate-buffered saline (PBS).
The washed cell pellet was homogenized with Dounce homogenizer (20 strokes) in homogenizing buffer (0.5% deoxycholate [DOC], 5 mM 2-mercaptoethanol, 1 μM leupeptin, 100 μM PMSF, 20 μM p-tosyl-L-lysine-chloromethyl ketone [TLCK] in PBS). The homogenate was centrifuged at 100,000 g×90 minutes (4° C.) and the supernatant containing PDE IV activity was dialyzed against dialysis buffer, which was the same component as homogenizing buffer without DOC. The dialyzed supernatant of homogenate was stored in freezer (−80° C.) as PDE IV enzyme preparation.
Enzyme preparation was diluted in assay buffer (10 mM Tris-HCl, 5 mM MgCl, 1 mM 2-Mercaptoethanol [pH 8.0]). In advance the rate of dilution was choosen every new lot of homogenizing preparation. […]
The reaction tube was preincubated in a water bath (30° C.) for 5 minutes, then 100 μl [^3H]-cAMP (37.0 MBq/ml [^3H]-cAMP: 4 μM cold cAMP=1:800) was added thereto. […] The mixture was centrifuged at 1000 rpm×5 minutes, and then 500 μl of the supernatant was added to 10 ml scintillation fluid in appropriate vial, vortexed, and counted for [^3H].
The inhibitory activity was calculated according to the following equation: [formula]

[2] = system: TNF-α Production in Human Mononuclear Cells; experiment: Inhibition on TNF-α Production in Human Mononuclear Cells; assay type: cell-based; conditions: MNC from healthy volunteers, 1 μg/ml LPS (E. coli), 37° C. for 16 hours, TNF-α in supernatant by ELISA
Method: (b) Inhibition on TNF-α Production in Human Mononuclear Cells
Blood was drawn from healthy volunteers with heparin. The mononuclear cell (MNC) fraction was obtained by gradient centrifugation (1800 rpm, 15 minutes), diluted with the same volume of RPMI-1640 culture medium, over Ficoll-Paque (Pharmacia LKB Biotechnology). MNC were washed twice with RPMI-1640. Then, MNC were resuspended in RPMI-1640 culture medium supplemented with 2 mM L-glutamine and 1% fetal bovine serum. MNC were incubated at 37° C. for 16 hours in 96-well micro culture plate at a concentration of […] with or without 1 μg/ml lipopolysaccharide (LPS) (from E. coli) and various amounts of test compound. At the end of incubation, the supernatant was obtained and its TNF-α active was measured by enzyme-linked immunosorbent assay (ELISA). ELISA was performed with TNF-α ELISA kit (Otsuka Pharmaceutical Co., Ltd.).

| Compound | melting point | IC50 [1] [nM] | IC50 [2] [nM] |
| --- | --- | --- | --- |
| O=C(/C=C(\C(=O)O)c1ccccc1)Nc1cccc(-c2cccc(-n3c(=O)c(Cc4cccnc4)nc4cccnc43)c2)c1 [Example 82(2), 4-[3-[3-[(Z)-3-Carboxy-3-phenylacryloylamino]phenyl]phenyl]-2-(3-pyridylmethyl)-3-oxo-3,4-dihydropyrido[2,3-b]pyrazine] | 189 to 198 °C (dec.) |  |  |
| O=C(Nc1cccc(-c2cccc(-n3c(=O)c(Cc4cccnc4)nc4cccnc43)c2)c1)C(F)(F)F [Example 83, 4-[3-(3-trifluoroacetylaminophenyl)phenyl]-2-(3-pyridylmethyl)-3-oxo-3,4-dihydropyrido[2,3-b]pyrazine] | 138 to 144 °C |  |  |
| O=c1c(Cc2ccccc2)nc2cccnc2n1-c1cccc(-n2c(Br)ccc2Br)c1 [Example 113, 2-Benzyl-4-[3-(2,5-dibromopyrrol-1-yl)phenyl]-3-oxo-3,4-dihydropyrido[2,3-b]pyrazine] | 90 °C (dec.) |  |  |
| O=C(Nc1cccc(-n2c(=O)c(Cc3ccccc3)nc3cccnc32)c1)Nc1cccc2ccccc12 [Test compound (a), 4-[3-[3-(1-Naphthyl)ureido]phenyl]-2-benzyl-3-oxo-3,4-dihydropyrido[2,3-b]pyrazine] |  | 31 | 56 |
